pIC50: −log10 of the molar value.
How the values were obtained:
[1] = test system: HCC1937 BRCA1 mutant and HCC1937 BRCA1 reconstituted cells; assay: Clonogenic growth assay (WST-1, colony counting); format: cell-based
Experimental: HCC1937 BRCA1 mutant and HCC1937 BRCA1 reconstituted breast ductal carcinoma cells were cultured in RPMI-1640 medium supplemented with 10% fetal calf serum, 2 mM L-glutamine, 1 mM sodium pyruvate, 4.5 g/l glucose and 1% (v/v) penicillin/streptomycin. Status of BRCA1 was corroborated by immunoprecipitation using 50 μg nuclear extracts and 1 μg mouse monoclonal antibody MS110 (ab16780, Abcam Inc., Cambridge, MA), which is directed towards the amino-terminus of the protein. Blots were probed with BRCA1 carboxy-terminal specific mouse monoclonal antibody D9 (sc-6954, Santa Cruz Biotechnologies, Santa Cruz, CA) and, following stripping, re-probed with antibody MS110. For assays, 5000 cells in 3 ml medium were seeded per well of 6 well plates in duplicates. The day after, vehicle (DMSO) or compounds were added. After one week medium was exchanged and vehicle or compounds were re-added for an additional two days. To assess proliferation the medium in each well was replaced with 1 ml medium containing 100 μl WST-1 reagent and incubation for 20 minutes at 37°C. Of each sample 110 μl supernatant were transferred into a 96 well plate and the OD was read at 450 nm (filter at 630 nm) on a SpectraMax Plus microtiter plate reader using SoftMax Pro software (Molecular Devices). For background correction, the blank value consisted of 100 μl medium containing 10 μl WST-1. Thereafter, colonies were stained by removing medium, washing cells once with PBS and incubation with 1 ml crystal violet solution for 30 minutes at room temperature. Cells were washed twice with PBS and colonies were counted using an Artec Counter (Model 880, Artec, Dyntatech Laboratories Inc.) with diameter cut-off set to 0.2 mm. Data were expressed as growth or colony numbers relative to vehicle control treatments (100%).

topoisomerase II beta = biological target: T1, topoisomerase II beta (Homo sapiens, UniProt Q02880); assay: Affinity precipitation with biotinylated purine analogue 2 from HL-60 nuclear extracts; format: binding; conditions: 1 μM biotinylated analogue 2; competitor in excess (10 μM), QAP 1 also at equimolar concentration
T1 construct: endogenous in cells; host or cells: HL-60 nuclear extract
Experimental: Topoisomerase II α and β were affinity precipitated with biotinylated inhibitor as follows. Exponentially growing HL-60 cells were collected on ice and incubated with hypotonic buffer (10 mM HEPES pH 7.5, 1.5 mM MgCl2, 10 mM KCl, 0.5 mM DTT, 0.5 mM PMSF, 1× protease inhibitor cocktail (Complete Mini, Roche Diagnostics GmbH)) for 15 minutes, then 0.6% v/v NP-40 was added and cells were disrupted using a Dounce homogenizer. Lysates were transferred to 1.5 ml Protein LoBind Eppendorf tubes and nuclei were collected after centrifugation at 8000 rpm for 10 minutes and washed twice with hypotonic buffer. To extract and release chromatin associated topoisomerase II nuclei were incubated for 30 minutes in DNAse buffer (20 mM Tris HCl pH 7.5, 5 mM MgCl2, 1 mM CaCl2, 25 mM NaCl, 0.5 mM EDTA, 1% NP-40, 1 mM DTT, 1 × protease inhibitor cocktail, 0.1 mM PMSF) containing 40 U DNAse I (Roche Diagnostics GmbH) followed by addition of twice concentrated nuclear extraction buffer (20 mM HEPES pH 7.5, 3 mM MgCl2, 20 mM KCl, 50 mM β-glycerophosphate, 840 mM NaCl, 1 mM EDTA, 50 mM PNPP, 1 mM DTT, 1 mM PMSF) and rotation for 1 h in the coldroom. The soluble fraction was obtained following centrifugation at 13000 rpm for 15 minutes. 25 μg nuclear extract were used for the affinity precipitation. The salt concentration was adjusted to 150 mM with nuclear extraction buffer (without NaCl) and the sample volume was toped off to 200 μl with precipitation buffer (50 mM HEPES pH 7.4, 150 mM NaCl, 25 mM β-glycerophosphate, 25 mM NaF, 5 mM EGTA, 1 mM EDTA, 15 mM PPI, 1 mM PMSF). Compounds were preincubated for 30 minutes prior addition of biotinylated purine analogue 2 for 2 h. Streptavidin agarose beads (Novagen, 69203) were washed twice with PBS, blocked for 30 minutes with PBS containing 1% BSA, washed twice with PBS and finally with precipitation buffer. 40 μl equilibrated streptavidin agarose beads were added to the sample and incubation was continued for 1 h. Beads were pelleted by centrifugation at 7000 rpm for 5 minutes and washed thrice with precipitation buffer. During the last wash the beads were transferred to a new tube and the bound fraction was released by boiling for 5 minutes in Laemmli sample buffer. Topoisomerase II α and β were detected by Western blot as described below.

[2] = test system: topoisomerase II from nuclear extracts of HL-60 cells; assay: DNA decatenation assay with HL-60 nuclear extracts (kDNA); format: biochemical, human; conditions: catenated kDNA, 450 μM ATP, read-out: mean IC50, inhibition of DNA decatenation
Experimental: Reagents for the assay were purchased from TopoGEN (catalog number 1001–1, TopoGEN, Inc., Port Orange, FL). Topoisomerase II was extracted according to the manufacturer's instructions from nuclei of HL-60 cells (ATCC; American Type Culture Collection, Manassas, Virginia, USA) and contained both isoforms as assessed by Western blotting. Calculation of specific topoisomerase II decatenation activity was based on complete decatenation of a given amount of catenated input DNA (100 ng kDNA) by a defined amount of nuclear extract containing the alpha and beta isoforms or of a defined amount of purified enzyme in a particular amount of time. The topoisomerase II activity from nuclei decatenated 0.07 ng catenated kDNA · min^-1 · ng^-1 extract. Purified topoisomerase II alpha (see above) decatenated 0.13 ng catenated kDNA · min^-1 · ng^-1. Vehicle (DMSO) or drug substance at concentrations to yield the desired end concentrations were added and samples were preincubated for 5 minutes at 37°C and 400 rpm in an Eppendorf thermomixer. Reactions were started by adding ATP (to 450 μM final concentration) to each sample and incubation was continued for 20 minutes. […] Gels were analyzed under a UV transilluminator and decatenated kDNA products were quantified using AlphaEaseFC (FluorChem 8900) image analysis software version 3.2.3 (Alpha Innotech, San Leandro, CA).

T1 sequence (Q02880 whole entry): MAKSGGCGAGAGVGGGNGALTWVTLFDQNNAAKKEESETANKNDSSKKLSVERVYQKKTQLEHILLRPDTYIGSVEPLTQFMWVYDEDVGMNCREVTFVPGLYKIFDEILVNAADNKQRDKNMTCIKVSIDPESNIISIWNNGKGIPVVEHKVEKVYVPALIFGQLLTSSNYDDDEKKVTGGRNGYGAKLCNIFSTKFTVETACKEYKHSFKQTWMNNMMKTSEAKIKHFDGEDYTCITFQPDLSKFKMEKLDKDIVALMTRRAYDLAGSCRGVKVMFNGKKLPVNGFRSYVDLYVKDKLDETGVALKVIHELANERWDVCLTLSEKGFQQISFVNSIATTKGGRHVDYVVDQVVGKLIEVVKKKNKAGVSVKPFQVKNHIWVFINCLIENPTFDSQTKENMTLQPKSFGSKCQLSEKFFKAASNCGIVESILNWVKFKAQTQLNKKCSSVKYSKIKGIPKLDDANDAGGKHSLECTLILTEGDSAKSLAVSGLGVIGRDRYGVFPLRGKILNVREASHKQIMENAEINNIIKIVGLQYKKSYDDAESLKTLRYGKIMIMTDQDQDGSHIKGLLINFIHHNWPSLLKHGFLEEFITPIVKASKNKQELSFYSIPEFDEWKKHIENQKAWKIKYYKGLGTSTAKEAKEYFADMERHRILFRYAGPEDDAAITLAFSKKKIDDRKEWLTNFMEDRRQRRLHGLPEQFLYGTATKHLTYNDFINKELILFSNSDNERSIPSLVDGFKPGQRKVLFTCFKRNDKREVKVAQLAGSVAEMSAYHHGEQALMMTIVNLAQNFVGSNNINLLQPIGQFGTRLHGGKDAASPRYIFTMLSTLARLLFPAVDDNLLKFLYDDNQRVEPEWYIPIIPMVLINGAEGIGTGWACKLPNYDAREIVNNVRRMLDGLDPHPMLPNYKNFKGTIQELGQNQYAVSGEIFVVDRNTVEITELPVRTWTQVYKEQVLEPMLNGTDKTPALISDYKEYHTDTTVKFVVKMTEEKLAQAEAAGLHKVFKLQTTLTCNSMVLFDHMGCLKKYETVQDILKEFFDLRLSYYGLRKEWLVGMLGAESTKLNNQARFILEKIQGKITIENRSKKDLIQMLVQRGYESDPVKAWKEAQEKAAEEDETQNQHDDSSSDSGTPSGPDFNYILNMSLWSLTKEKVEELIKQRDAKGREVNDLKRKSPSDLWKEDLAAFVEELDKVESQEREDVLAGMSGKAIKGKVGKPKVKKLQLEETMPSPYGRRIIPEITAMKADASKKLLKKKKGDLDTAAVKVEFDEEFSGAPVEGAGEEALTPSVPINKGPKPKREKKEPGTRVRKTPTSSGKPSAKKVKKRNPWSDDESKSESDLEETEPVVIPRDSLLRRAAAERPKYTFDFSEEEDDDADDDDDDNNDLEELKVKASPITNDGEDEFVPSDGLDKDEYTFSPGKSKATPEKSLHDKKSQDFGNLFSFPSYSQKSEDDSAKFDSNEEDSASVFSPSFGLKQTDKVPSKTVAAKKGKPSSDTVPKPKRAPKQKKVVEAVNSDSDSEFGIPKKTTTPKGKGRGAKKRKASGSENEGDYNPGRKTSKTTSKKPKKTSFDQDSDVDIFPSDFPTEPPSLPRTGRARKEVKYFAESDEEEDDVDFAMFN

CCc1nc2nc(Nc3ccc4nc(OCCN5CCOCC5)ccc4c3)nc(NC(C)(C)C)c2[nH]1 [QAP 1]
colony formation of BRCA1 mutant cells ([1]; 5 μM, 9 days): striking suppression | sensitivity of BRCA1 mutant versus BRCA1 reconstituted HCC1937 cells ([1]; continuous treatment for 9 days, WST-1 and colony numbers): differential antiproliferative effect | competition of the interaction of biotinylated purine analogue 2 with topoisomerase II beta (topoisomerase II beta): abolished | pIC50 [2]: 6.11
